The results in this text go back to the NIST ThermoML archive (doi:10.1021/je4006739).

Numbers after ± are expanded uncertainties.

The conditions of the data set: Liquid; for mass density: 293.15 K, 101.33 kPa, Vibrating tube method; for Normal boiling temperature: Ebulliometric method (Recirculating still).

As usually defined, the mass density is the mass of a sample divided by its volume. `CCc1ccccc1` [ethylbenzene]: the mass density came to 863.64 ± 0.23 kg/m3 and the Normal boiling temperature is 136.10 ± 1 °C.
As for `CCOCCO` [2-ethoxyethan-1-ol], the mass density was determined as 928.92 ± 0.23 kg/m3 and the Normal boiling temperature was 135.20 ± 1 °C.
Regarding `C[S+](C)[O-]` [dimethyl sulfoxide], the mass density amounted to 1092.48 ± 0.27 kg/m3 and the Normal boiling temperature worked out at 189.10 ± 1 °C.
